Assay results: patent publication US8012957B2, “Tetrahydro-1H-1,2,6-triaza-azulene cannabinoid modulators” (Janssen Pharmaceutica NV, priority 2006, dated 2011)

Assays:
cannabinoid CB1 receptor = target: T1, cannabinoid CB1 receptor (Homo sapiens, UniProt P21554); assay: Binding assay for CB1, [3H]-CP-55,940 displacement on membranes of transfected SK-N-MC cells; conditions: for inhibition at 0.2 µM: test concentration of 0.2 μM, read-out: Cannabinoid CB 1 Receptor Binding Inhibition (%); for IC50: radioligand [3H]-CP-55,940 0.2 nM, calculated by linear regression
T1 construct: expressed in transfected cells; host or cells: SK-N-MC cells, pcDNA3 CB-1 (human), semi-purified membrane pellet
Protocol: (§1) Binding Assay for CB1 or CB2 Agonists or Inverse Agonists
(§2) The human CB1 and CB2 receptors were stably expressed in SK-N-MC cells transfected with pcDNA3 CB-1 (human) or pcDNA3 CB-2 (human). The cells were grown in T-180 cell culture flasks under standard cell culture conditions at 37° C. in a 5% CO2 atmosphere. The cells were harvested by trysinization and homogenized in a homogenization buffer (10 mM Tris, 0.2 mM MgCl2, 5 mM KCl, with protease inhibitors aprotinin, leupeptin, pepstatin A and bacitracin) and centrifuged (2000 g). The supernatant was then centrifuged in 2M sucrose (31,300 g) to produce a semi-purified membrane pellet. The pellet was resuspended in homogenization and stored at −80° C.
(§3) On the day of the assay, the pellet was thawed on ice and diluted in assay buffer (50 mM Tris-HCl, 5 mM MgCl2, 2.5 mM EDTA, 0.5 mg/mL fatty acid free bovine serum albumin, pH 7.5). The diluted membrane pellet was added with buffer, either a test compound or vehicle standard and a the radioligand [H]^3+-CP-55,940 (0.2 nM) to the wells of a 96-well polypropylene plate. Non-specific binding was measured in wells containing WIN 55,212 (10 uM). The plate was covered and incubated for 90 minutes at 30° C. The contents were then aspirated onto a Packard Unifilter GF/C filter bottom plate prewet with 0.5% polyethyleneimine. The wells of the polypropylene plate were rinsed and aspirated seven times with a 0.9% saline-0.5% Tween 20 solution. The Unifilter plate was dried, a scintillation cocktail was added to each well and the counts representing binding were quantitated in a TopCount scintillation counter.
(§4) For compounds tested, an IC50 binding value was obtained from percent inhibition studies in which various test concentrations were used. The binding value (in μM) was calculated by linear regression.
(§5) For those compounds without an IC50 binding value, the percent inhibition (%) was obtained at a test concentration of 0.2 μM.

cannabinoid CB2 receptor = target: T2, cannabinoid CB2 receptor (Homo sapiens, UniProt P34972); assay: Binding assay for CB2, [3H]-CP-55,940 displacement on membranes of transfected SK-N-MC cells; conditions: test concentration of 0.2 μM
T2 construct: expressed in transfected cells; host or cells: SK-N-MC cells, pcDNA3 CB-2 (human), semi-purified membrane pellet
Protocol: as §1, §2, §3, §4, §5

T1 sequence (P21554 whole entry): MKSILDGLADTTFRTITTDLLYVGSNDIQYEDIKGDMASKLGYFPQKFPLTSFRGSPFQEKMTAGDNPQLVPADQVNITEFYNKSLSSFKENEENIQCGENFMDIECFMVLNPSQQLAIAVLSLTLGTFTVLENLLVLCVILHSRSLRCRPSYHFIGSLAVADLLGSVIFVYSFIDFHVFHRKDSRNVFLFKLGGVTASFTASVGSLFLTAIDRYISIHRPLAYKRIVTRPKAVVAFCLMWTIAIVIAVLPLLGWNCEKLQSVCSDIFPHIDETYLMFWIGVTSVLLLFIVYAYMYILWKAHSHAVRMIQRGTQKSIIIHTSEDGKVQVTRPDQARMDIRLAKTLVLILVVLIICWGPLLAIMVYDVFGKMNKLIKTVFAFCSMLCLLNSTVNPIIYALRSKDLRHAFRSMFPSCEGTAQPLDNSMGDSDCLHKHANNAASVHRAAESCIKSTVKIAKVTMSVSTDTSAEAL
T2 sequence (P34972 whole entry): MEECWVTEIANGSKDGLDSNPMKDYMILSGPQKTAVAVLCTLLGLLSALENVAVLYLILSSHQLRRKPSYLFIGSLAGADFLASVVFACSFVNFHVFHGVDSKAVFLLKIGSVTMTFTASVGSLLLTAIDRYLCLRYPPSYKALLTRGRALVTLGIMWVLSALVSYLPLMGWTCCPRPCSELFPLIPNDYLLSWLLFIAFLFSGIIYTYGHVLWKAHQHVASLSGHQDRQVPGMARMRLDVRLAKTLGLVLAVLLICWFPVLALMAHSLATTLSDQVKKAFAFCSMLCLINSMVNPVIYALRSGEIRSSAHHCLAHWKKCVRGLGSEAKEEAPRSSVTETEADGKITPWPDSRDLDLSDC

**Q.** With `O=C(c1nn(-c2ccc(Cl)cc2Cl)c2c1CCNC/C2=C\c1ccc(F)cc1)N1CCCCC1` [Cpd 5, (8E)-[1-(2,4-dichloro-phenyl)-8-(4-fluoro-benzylidene)-1,4,5,6,7,8-hexahydro-1,2,6-triaza-azulen-3-yl]-piperidin-1-yl-methanone] as the compound, how does the inhibition at 0.2 µM (cannabinoid CB1 receptor) read?
**A.** The inhibition at 0.2 µM was 16%.

**Q.** And the inhibition at 0.2 µM (cannabinoid CB2 receptor)?
**A.** Its inhibition at 0.2 µM is 10%.

**Q.** For `CC(C)(C)OC(=O)N1CCc2c(C(=O)NN3CCCCC3)nn(-c3ccc(Cl)cc3Cl)c2/C(=C/c2ccc(F)cc2)C1` [Cpd 2, (8E)-1-(2,4-dichloro-phenyl)-8-(4-fluoro-benzylidene)-3-(piperidin-1-ylcarbamoyl)-4,5,7,8-tetrahydro-1H-1,2,6-triaza-azulene-6-carboxylic acid tert-butyl ester], which inhibition at 0.2 µM (cannabinoid CB1 receptor) is on record?
**A.** Its inhibition at 0.2 µM is 54%.

**Q.** What about the inhibition at 0.2 µM (cannabinoid CB2 receptor) of the same compound?
**A.** Its inhibition at 0.2 µM is 15%.

**Q.** For `CC(NC(=O)c1nn(-c2ccc(Cl)cc2Cl)c2c1CCN(C(=O)OC(C)(C)C)C/C2=C\c1ccc(F)cc1)c1ccccn1` (stereo not drawn) [Cpd 4, (8E)-1-(2,4-dichloro-phenyl)-8-(4-fluoro-benzylidene)-3-(1-pyridin-2-yl-ethylcarbamoyl)-4,5,7,8-tetrahydro-1 H-1,2,6-triaza-azulene-6-carboxylic acid tert-butyl ester], which IC50 (cannabinoid CB1 receptor) is on record?
**A.** Its IC50 is 50 nM.

**Q.** And the inhibition at 0.2 µM (cannabinoid CB2 receptor)?
**A.** The inhibition at 0.2 µM was 14%.

**Q.** For `CC(C)(C)OC(=O)N1CCc2c(C(=O)N3CCCCC3)nn(-c3ccc(Cl)cc3Cl)c2/C(=C/c2ccc(F)cc2)C1` [Cpd 1, (8E)-1-(2,4-dichloro-phenyl)-8-(4-fluoro-benzylidene)-3-(piperidine-1-carbonyl)-4,5,7,8-tetrahydro-1 H-1,2,6-triaza-azulene-6-carboxylic acid tert-butyl ester], which inhibition at 0.2 µM (cannabinoid CB1 receptor) is on record?
**A.** The inhibition at 0.2 µM was 27%.

**Q.** And the inhibition at 0.2 µM (cannabinoid CB2 receptor)?
**A.** Its inhibition at 0.2 µM is 6%.

**Q.** `COC(=O)N1CCc2c(C(=O)NN3CCCCC3)nn(-c3ccc(Cl)cc3Cl)c2/C(=C/c2ccc(F)cc2)C1` [Cpd 6, (8E)-1-(2,4-dichloro-phenyl)-8-(4-fluoro-benzylidene)-3-(piperidin-1-ylcarbamoyl)-4,5,7,8-tetrahydro-1H-1,2,6-triaza-azulene-6-carboxylic acid methyl ester] was tested. Which inhibition at 0.2 µM (cannabinoid CB1 receptor) did it give?
**A.** The inhibition at 0.2 µM was 39%.

**Q.** And the inhibition at 0.2 µM (cannabinoid CB2 receptor)?
**A.** Its inhibition at 0.2 µM is 17%.

**Q.** Which results are given for `CC(NC(=O)c1nn(-c2ccc(Cl)cc2Cl)c2c1CCN(C(=O)OC(C)(C)C)C/C2=C\c1ccc(F)cc1)c1ccccc1` (stereo not drawn) [Cpd 3, (8E)-1-(2,4-dichloro-phenyl)-8-(4-fluoro-benzylidene)-3-(1-phenyl-ethylcarbamoyl)-4,5,7,8-tetrahydro-1 H-1,2,6-triaza-azulene-6-carboxylic acid tert-butyl ester]?
**A.** IC50 (cannabinoid CB1 receptor): 61 nM; inhibition at 0.2 µM (cannabinoid CB2 receptor): 15%
